Measured values: the NIST ThermoML archive (doi:10.1016/j.jct.2017.11.009)
Numbers after ± are expanded uncertainties.

Assay: Boiling temperature at pressure P
Conditions: 101.3 kPa; Liquid; Ebulliometric method (Recirculating still)

Boiling temperature at pressure P | Structure (SMILES)
197.17 ± 0.4 °C | OCCO [1,2-ethanediol]
199.10 ± 0.4 °C | CNC=O [N-methylformamide]
202.29 ± 0.4 °C | CN1CCCC1=O [N-methylpyrrolidone]

Structure (SMILES) | Boiling temperature at pressure P
C=CCO [2-propenol] | 96.80 ± 0.4 °C
